# Values of other authors as cited in PubChem BioAssay AID1259409 (Chemical Carcinogenesis Research Information System (CCRIS), 2018).
# Tested on: rodent chemically induced tumor inhibition, incidence and multiplicity
# Experiment: CCRIS tumor inhibitor studies
compound,measurement,setting,value
Cc1c(C)c2c(c(C)c1O)CCC(C)(COc1ccc(CC3SC(=O)NC3=O)cc1)O2 (configuration not stated),"tumour outcome (control, treated, inhibition, significance)","Carcinogen: 4-NITROQUINOLINE 1-OXIDE, 56-57-5, Dose [Inhibitor]: 0, 30 PPM IN DIET FOR 22 WK BEGINNING 1 WK POST FINAL CARCINOGEN DOSE (STUDY DURATION: 31 WK), Route [Inhibitor]: ORAL, Species: RAT, Strain/Sex: F344/MALE, Target Tissue: Type of Lesion: TONGUE: PAPILLOMA, Dose [Carcinogen]: 20 PPM IN DRINKING WATER FOR 8 WK","3/24 (12.5%), 0/19 (0%), 100%, not significant"
same,"tumour outcome (control, treated, inhibition, significance)","Carcinogen: 4-NITROQUINOLINE 1-OXIDE, 56-57-5, Dose [Inhibitor]: 0, 30 PPM IN DIET FOR 22 WK BEGINNING 1 WK POST FINAL CARCINOGEN DOSE (STUDY DURATION: 31 WK), Route [Inhibitor]: ORAL, Species: RAT, Strain/Sex: F344/MALE, Target Tissue: Type of Lesion: TONGUE: SQUAMOUS CELL CARCINOMA, Dose [Carcinogen]: 20 PPM IN DRINKING WATER FOR 8 WK","11/24 (45.8%), 5/19 (26.3%), 42.6%, not significant"
same,"tumour outcome (control, treated, inhibition, significance)","Carcinogen: 4-NITROQUINOLINE 1-OXIDE, 56-57-5, Dose [Inhibitor]: 0, 100 PPM IN DIET FOR 22 WK BEGINNING 1 WK POST FINAL CARCINOGEN DOSE (STUDY DURATION: 31 WK), Route [Inhibitor]: ORAL, Species: RAT, Strain/Sex: F344/MALE, Target Tissue: Type of Lesion: TONGUE: PAPILLOMA, Dose [Carcinogen]: 20 PPM IN DRINKING WATER FOR 8 WK","3/24 (12.5%), 3/20 (15%), -20%, not significant"
same,"tumour outcome (control, treated, inhibition, significance)","Carcinogen: 4-NITROQUINOLINE 1-OXIDE, 56-57-5, Dose [Inhibitor]: 0, 100 PPM IN DIET FOR 22 WK BEGINNING 1 WK POST FINAL CARCINOGEN DOSE (STUDY DURATION: 31 WK), Route [Inhibitor]: ORAL, Species: RAT, Strain/Sex: F344/MALE, Target Tissue: Type of Lesion: TONGUE: SQUAMOUS CELL CARCINOMA, Dose [Carcinogen]: 20 PPM IN DRINKING WATER FOR 8 WK","11/24 (45.8%), 1/20 (5%), 89.1%, p< 0.005"
same,"tumour outcome (control, treated, inhibition, significance)","Carcinogen: AZOXYMETHANE (25843-45-2), Dose [Inhibitor]: 0, 0.05% ADMINISTERED 1 WK AFTER END OF DEXTRAN SODIUM SULFATE TREATMENT FOR 14 WKS (STUDY DURATION: 17 WKS), Route [Inhibitor]: DIET, Species: MOUSE, Strain/Sex: CD-1/FEMALE (10,10)/(10,10), Target Tissue: Type of Lesion: COLON: ADENOCARCINOMA, Dose [Carcinogen]: 10 MG/KG ONCE, Promoter: DEXTRAN SODIUM SULFATE (9011-18-1)","10/10 (100%), 4/10 (40%), 60%, p<0.01"
same,"tumour outcome (control, treated, inhibition, significance)","Carcinogen: AZOXYMETHANE (25843-45-2), Dose [Inhibitor]: 0, 0.05% ADMINISTERED 1 WK AFTER END OF DEXTRAN SODIUM SULFATE TREATMENT FOR 14 WKS (STUDY DURATION: 17 WKS), Route [Inhibitor]: DIET, Species: MOUSE, Strain/Sex: CD-1/FEMALE (10,10)/(10,10), Target Tissue: Type of Lesion: COLON: ADENOMA, Dose [Carcinogen]: 10 MG/KG ONCE, Promoter: DEXTRAN SODIUM SULFATE (9011-18-1)","10/10 (100%), 9/10 (90%), 10%, not significant"
same,"tumour outcome (control, treated, inhibition, significance)","Carcinogen: N-METHYL-N-NITROSOUREA [684-93-5], Dose [Inhibitor]: 0.15% IN DIET FROM WKS 10 TO 52 (STUDY DURATION: 52 WKS), Route [Inhibitor]: ORAL (DIET), Species: MOUSE, Strain/Sex: PEROXISOME PROLIFERATOR- ACTIVATED RECEPTOR (PPAR GAMMA +/+)/MALE (11,9)/(13,11), Target Tissue: Type of Lesion: STOMACH: CARCINOMA, Dose [Carcinogen]: 240 PPM IN DRINKING WATER ON ALTERNATE WKS OVER A 10 WK PERIOD","(5/9) 56%, (1/11) 9%, 84%, p<0.01"
same,"tumour outcome (control, treated, inhibition, significance)","Carcinogen: N-METHYL-N-NITROSOUREA [684-93-5], Dose [Inhibitor]: 0.15% IN DIET FROM WKS 10 TO 52 (STUDY DURATION: 52 WKS), Route [Inhibitor]: ORAL (DIET), Species: MOUSE, Strain/Sex: PEROXISOME PROLIFERATOR- ACTIVATED RECEPTOR (PPAR GAMMA +/-)/MALE (23,19)/(19,15), Target Tissue: Type of Lesion: STOMACH: CARCINOMA, Dose [Carcinogen]: 240 PPM IN DRINKING WATER ON ALTERNATE WKS OVER A 10 WK PERIOD","(17/19) 90%, (12/15) 80%, 11%, not significant"
S=C=NCCCCCc1ccccc1,"tumour outcome (control, treated, inhibition, significance)","Carcinogen: 4-(METHYLNITROSAMINO)-1-(3-PYRIDYL)-1-BUTANONE, 64091-91-4, Dose [Inhibitor]: 0, 0.2 UMOL 1/D FOR 4 D ADMINISTERED PRIOR TO CARCINOGEN TREATMENT (STUDY DURATION: 116 D), Route [Inhibitor]: GAVAGE, Species: MOUSE, Strain/Sex: STRAIN A, Target Tissue: Type of Lesion: LUNG: ADENOMA, Dose [Carcinogen]: 10 UMOL ONCE 2 HR AFTER FINAL DOSE OF INHIBITOR, Promoter: NONE USED","100%, 100%, 0%, not significant"
same,"tumour outcome (control, treated, inhibition, significance)","Carcinogen: 4-(METHYLNITROSAMINO)-1-(3-PYRIDYL)-1-BUTANONE, 64091-91-4, Dose [Inhibitor]: 0, 1 UMOL 1/D FOR 4 D ADMINISTERED PRIOR TO CARCINOGEN TREATMENT (STUDY DURATION:116 D), Route [Inhibitor]: GAVAGE, Species: MOUSE, Strain/Sex: STRAIN A, Target Tissue: Type of Lesion: LUNG: ADENOMA, Dose [Carcinogen]: 10 UMOL ONCE 2 HR AFTER FINAL DOSE OF INHIBITOR, Promoter: NONE USED","100%, 53%, 47%, p<0.05"
same,"tumour outcome (control, treated, inhibition, significance)","Carcinogen: 4-(METHYLNITROSAMINO)-1-(3-PYRIDYL)-1-BUTANONE, 64091-91-4, Dose [Inhibitor]: 0, 5 UMOL 1/D FOR 4 D ADMINISTERED PRIOR TO CARCINOGEN TREATMENT (STUDY DURATION: 116 D), Route [Inhibitor]: GAVAGE, Species: MOUSE, Strain/Sex: STRAIN A, Target Tissue: Type of Lesion: LUNG: ADENOMA, Dose [Carcinogen]: 10 UMOL ONCE 2 HR AFTER FINAL DOSE OF INHIBITOR, Promoter: NONE USED","100%, 25%, 75%, p<0.05"
CCCCC(C)(O)C/C=C/[C@H]1[C@H](O)CC(=O)[C@@H]1CCCCCCC(=O)OC (some centres not stated),"tumour outcome (control, treated, inhibition, significance)","Carcinogen: N-METHYL-N'-NITRO-N-NITROSOGUANIDINE, 70-25-7, Dose [Inhibitor]: 0, 200 UG/KG/D IN DRINKING WATER FOR 52 WK CONCURRENTLY WITH CARCINOGEN TREATMENT (STUDY DURATION: 52 WK), Route [Inhibitor]: ORAL, Species: RAT, Strain/Sex: SPRAGUE-DAWLEY/MALE, Target Tissue: Type of Lesion: GLANDULAR STOMACH: ADENOCARCINOMA, Dose [Carcinogen]: 120 MG/L IN DRINKING WATER FOR 52 WK, Promoter: NONE USED","9/15 (60%), 5/20 (25%), 58%, p<0.05"
CC(C)C1CCC(O)CC1 (configuration not stated),"tumour outcome (control, treated, inhibition, significance)","Carcinogen: 7,12-DIMETHYLBENZ[A]ANTHRACENE, 57-97-6, Dose [Inhibitor]: 0, 12 NMOL PER REPEATED APPLICATION FOR 20 WK (STUDY DURATION: 20 WK), Route [Inhibitor]: DERMAL, Species: MOUSE, Strain/Sex: CD-1/FEMALE, Target Tissue: Type of Lesion: SKIN: TUMOR, Dose [Carcinogen]: 100 UG ONCE, Promoter: OKADAIC ACID, 78111-17-8","87%, 50%, 43%, not calculated"
CO[C@@]12[C@H](COC(N)=O)C3=C(C(=O)C(C)=C(N)C3=O)N1C[C@@H]1N[C@@H]12,"tumour outcome (control, treated, inhibition, significance)","Carcinogen: N-BUTYL-N-(4-HYDROXYBUTYL)NITROSAMINE, 3817-11-6, Dose [Inhibitor]: 0.5 ML (2000 UG/ML) INSTILLED TRANSURETHRALLY 2/WK FOR 2 WK POST CARCINOGEN DOSE (STUDY DURATION: 20 WK), Route [Inhibitor]: INTRAVESICAL, Species: RAT, Strain/Sex: WISTAR/MALE, Target Tissue: Type of Lesion: BLADDER: CARCINOMA, Dose [Carcinogen]: 0.05% IN DRINKING WATER FOR 12 WK, Promoter: NONE USED","14/20 (70%), 8/10 (80%), -14%, not calculated"
same,"tumour outcome (control, treated, inhibition, significance)","Carcinogen: N-BUTYL-N-(4-HYDROXYBUTYL)NITROSAMINE, 3817-11-6, Dose [Inhibitor]: 0.5 ML (2000 UG/ML) INSTILLED TRANSURETHRALLY 2/WK FOR 2 WK POST CARCINOGEN DOSE (STUDY DURATION: 20 WK), Route [Inhibitor]: INTRAVESICAL, Species: RAT, Strain/Sex: WISTAR/MALE, Target Tissue: Type of Lesion: BLADDER: PAPILLOMA, Dose [Carcinogen]: 0.05% IN DRINKING WATER FOR 12 WK, Promoter: NONE USED","6/20 (30%), 2/10 (20%), 33%, not calculated"
same,"tumour outcome (control, treated, inhibition, significance)","Carcinogen: N-BUTYL-N-(4-HYDROXYBUTYL)NITROSAMINE, 3817-11-6, Dose [Inhibitor]: 2000 UG/ML INSTILLED CONTINUOUSLY FOR 2 WK POST CARCINOGEN DOSE (STUDY DURATION: 12 WK), Route [Inhibitor]: INTRAVESICAL, Species: RAT, Strain/Sex: WISTAR/MALE, Target Tissue: Type of Lesion: BLADDER: CARCINOMA, Dose [Carcinogen]: 0.05% IN DRINKING WATER FOR 12 WK, Promoter: NONE USED","14/20 (70%), 2/10 (20%), 71%, not calculated"
same,"tumour outcome (control, treated, inhibition, significance)","Carcinogen: N-BUTYL-N-(4-HYDROXYBUTYL)NITROSAMINE, 3817-11-6, Dose [Inhibitor]: 2000 UG/ML INSTILLED CONTINUOUSLY FOR 2 WK POST CARCINOGEN DOSE (STUDY DURATION: 12 WK), Route [Inhibitor]: INTRAVESICAL, Species: RAT, Strain/Sex: WISTAR/MALE, Target Tissue: Type of Lesion: BLADDER: PAPILLOMA, Dose [Carcinogen]: 0.05% IN DRINKING WATER FOR 12 WK, Promoter: NONE USED","6/20 (30%), 2/10 (20%), 33%, not calculated"
